Counter-ions that a name gives are not always drawn.
System: scopolamine-induced amnesia in mice
Assay: Elevated plus maze (transfer latency) in scopolamine-induced amnesia mice
Conditions: donepezil hydrochloride 3 mg/kg p.o., 7-day pre-treatment; p<0.001
Experimental: Groups III-V mice were dosed every 24 h interval with respective drugs for 7 consecutive days. On day 7, amnesia was induced in all the groups except the control group by intraperitoneal injection of scopolamine (1 mg/kg) 30 minutes after the respective treatments. 30 minutes later, elevated plus maze (EPM) was carried out to assess the cognitive function. At the end of experiment, mice were sacrificed; serum and brain homogenates were used for further analysis.
Briefly, the acquisition trail (day 6) was carried out by placing the mouse at the end of an open arm. The time taken by the mouse to enter any of the closed arms was taken as transfer latency. Cutoff time allotted for each mouse was 180 s. Retention trail was carried out 24 h after the first trail (Day 7, 30 min after scopolamine treatment). The transfer latency was determined in a similar manner as mentioned before. Shortened transfer latency was considered as an index of memory improvement.
In this study, EPM was applied as a behavioral model to assess learning and memory.

SMILES: COc1cc2c(cc1OC)C(=O)C(CC1CCN(Cc3ccccc3)CC1)C2 (stereo not shown) [donepezil, donepezil hydrochloride]
- reduction of latency period (transfer latency) compared to scopolamine control group: 82.45%

From US11896600B2, “Composition and method of using eicosanoyl-5-hydroxytryptamide for treating neurodegenerative disorders” (Vidya Herbs, Inc., priority 2019, dated 2024)
